Measurements published in patent US4563477A, “Process for the preparation of alpha-(N-pyrrolyl)-derivative acids, the salts and esters thereof; alpha-(N-pyrrolyl)-phenylacetic acids, the esters thereof, pharmaceutical compositions containing them and therapeutical applications thereof” (Antibioticos, S.A., priority 1982, dated 1986).

Experiments:
[1] = tested on: ADP induced platelet aggregation; test: "Ex vivo" platelet anti-aggregation activity in rats (ADP induced platelet aggregation, Born aggregometer); set-up: species or system Wistar rats, ITA 177 SPF; conditions: 100 mg/kg p.o., n = 5, blood drawn 5 hours after administration; for Platelet aggregation %: control 86.4 ± 2.15, Duncan Kramer test p < 0.05; for Platelet aggregation, % inhibition: relative to control
Procedure: Acetylsalicyclic acid at a dose level of 100 mg/kg p.o. was used as standard.
The products to be tested were administered at the maximum dose of 200 mg/kg, p.o.
Both the standard and the products were administered dissolved or suspended in a 10 ml/kg Tween solution.
The animals were fasted during the test and for 17 hours prior thereto, but had water "ad libitum".
The % aggregation was calculated measuring the difference in mm in the recorder between the initial aggregation stage and the height of the specimen curve 6 minutes after the onset of aggregation.
This figure, therefore, is calculated as a percentage, taking as 100% the figure in mm of the difference between the platelet rich plasma (prp) and the platelet poor plasma (ppp) obtained in balancing the apparatus for the specimen under examination.
"Ex vivo" platelet anti-aggregation activity in rats

[2] = tested on: 0.5% acetic acid induced contorsions in NMRI mice; test: Peripheral analgesic activity: 0.5% acetic acid induced contorsions in NMRI mice; assay type: in vivo; conditions: male NMRI mice, n = 10, 100 mg/kg p.o.; for % inhibition relative to control (contorsions) / No mice with contorsions: 0.5% acetic acid i.p.; for No contorsions (X ± s.e.): 0.5% acetic acid i.p. after 30 minutes, observed half an hour, mean ± s.e., control 27.1 ± 4.3, Duncan Kramer test p < 0.05; for No mice with contorsions: control 10/10
Procedure: The experimental method consists of injecting an irritant, such as acetic acid, into the […] peritoneum and provoking obviously appreciable painful contorsions such as stretching of the rear paws and twisting of the dorso-abdominal muscles.
The material used consisted of lots of NMRI mice bred in our SPF breeding centre under constant temperature and humidity conditions of 23°±0.5° C. and 70±5%.
Standard: acetylsalicylic acid
Vehicle: propylene glycol/water--40/60 v.
Transparent plastic cages.
With this material the mice were randomly distributed into groups of 10 animals. The test order and the treatment to be given to each group was also randomised. […]
The control lot received the vehicle. As standard, acetylsalicylic acid at a dose level of 100 mg/kg, suspended in the same vehicle and administered p.o., was used.
After 30 minutes, 0.25 ml per 20 g body weight of a 0.5% acetic acid solution was administered intraperitoneally.
The number of painful contorsions were counted and, for evaluating the results, the means of the number of stretches of each lot were calculated and were expressed as inhibition percentages relative to the control, as per the following equation: [formula] where c is the mean of the number of stretches of the control group and b is the mean of the number of stretches of the treated group.
The statistical significance between the lots may be ascertained with the Duncan-Kramer test, with p<0.05.
0.5% acetic acid induced contorsions in NMRI mice male (n = 10)

Structure (SMILES) | Platelet aggregation % [1] [%] | Platelet aggregation, % inhibition [1] [%] | % inhibition relative to control (contorsions) [2] [%] | No contorsions (X ± s.e.) [2] | No mice with contorsions [2]
O=C(O)C(c1ccccc1)n1cccc1 (racemic) [DL(±)-alpha-(N-pyrrolyl)-phenylacetic acid] | 25.3 ± 9.28 | 70.7 | 79.7 | 5.5 ± 1.8 | 7/10
O=C(O)C(c1ccc(O)cc1)n1cccc1 (racemic) [Dibenzylammonium DL(±)-alpha-(N-pyrrolyl)-p-hydroxy-phenylacetate] | – | – | 72.3 | 7.5 ± 2.2 | 9/10
CCOC(=O)C(c1ccccc1)n1cccc1 (racemic) [Ethyl DL(±)-alpha-(N-pyrrolyl)-phenylacetate] | 42.0 ± 2.58 | 51.4 | – | – | –
CC(=O)Oc1ccccc1C(=O)O [Acetylsalicylic acid, reference compound] | 20.1 ± 1.49 | 76.7 | 37.27 | 17 ± 3.5 | 10/10
O=C(O)Cn1cccc1 [Alpha-(N-pyrrolyl)-acetic acid] | 63.1 ± 3.32 | 27.0 | – | – | –
O=C(O)[C@@H](c1ccccc1)n1cccc1 [D(+)-alpha-(N-pyrrolyl)-phenylacetic acid] | – | – | 70.9 | 7.9 ± 2.6 | 8/10
O=C(O)[C@H](c1ccccc1)n1cccc1 [L(-)-alpha-(N-pyrrolyl)-phenylacetic acid] | – | – | 76.2 | 6.4 ± 1.9 | 8/10
CCCCC1C(=O)N(c2ccccc2)N(c2ccccc2)C1=O [Phenylbutazone, reference compound] | 58.2 ± 7.35 | 32.6 | – | – | –
